1 substance from publication PMC9950431, “A bivalent remipede toxin promotes calcium release via ryanodine receptor activation” (Nature Communications, 2023) can be followed below.

The target of the assay is T1, RyR1 (Oryctolagus cuniculus, UniProt P11716).
T1 construct: skeletal SR vesicles were isolated from the back and leg muscles of mature female New Zealand white rabbits; from tissue; host or cells: rabbit back and leg skeletal muscle, sarcoplasmic reticulum vesicles
The assay can be described thus: Washout (reversibility/avidity) single channel experiments, RyR1. The assay is classed as biochemical, New Zealand white rabbit (skeletal SR). As to the method: Cardiac SR was prepared from mature female crossbred sheep hearts, and skeletal SR vesicles were isolated from the back and leg muscles of mature female New Zealand white rabbits[29],[54] with approval from the ANU Animal Experiment Ethics Committee Protocol Number A2015/35. […] Solutions for vesicle incorporation contained (mM): cis 230 caesium methanesulfonate (CsMS); 20 CsCl; 1 CaCl2 and 10 […] (TES) pH 7.4 and trans 30 CsMS; 20 CsCl; 1 CaCl2 10 TES; pH 7.4. SR vesicles routinely incorporated with the cytoplasmic surface of the SR and RyR facing the cis chamber. Following incorporation, 200 mM CsMS was added to the trans solution and the cis solution exchanged with recording solution containing (mM): 230 CsMS; 20 CsCl; 0.001 CaCl2;10 TES and pH 7.4, with [Ca^2+] set by a [BAPTA] determined using a Ca^2+ electrode. […] Electrophysiology experiments were analysed using Channel 2 (P.W. Gage, M. Smith, Australian National University) and Channel 3 (N.W. Laver, University of Newcastle, Australia) software, available from the authors upon request. […] Following most incorporation events, a single channel only was active in the bilayer and channel open probability (Po), mean open time (To), mean closed time (Tc) and open event frequency (Fo) were measured. […] In all experiments control channel activity was recorded for 3 to 5 min before exposure to the test compound. […]

“Also recorded” adds a separate entry of the source.

T1 sequence (P11716 whole entry): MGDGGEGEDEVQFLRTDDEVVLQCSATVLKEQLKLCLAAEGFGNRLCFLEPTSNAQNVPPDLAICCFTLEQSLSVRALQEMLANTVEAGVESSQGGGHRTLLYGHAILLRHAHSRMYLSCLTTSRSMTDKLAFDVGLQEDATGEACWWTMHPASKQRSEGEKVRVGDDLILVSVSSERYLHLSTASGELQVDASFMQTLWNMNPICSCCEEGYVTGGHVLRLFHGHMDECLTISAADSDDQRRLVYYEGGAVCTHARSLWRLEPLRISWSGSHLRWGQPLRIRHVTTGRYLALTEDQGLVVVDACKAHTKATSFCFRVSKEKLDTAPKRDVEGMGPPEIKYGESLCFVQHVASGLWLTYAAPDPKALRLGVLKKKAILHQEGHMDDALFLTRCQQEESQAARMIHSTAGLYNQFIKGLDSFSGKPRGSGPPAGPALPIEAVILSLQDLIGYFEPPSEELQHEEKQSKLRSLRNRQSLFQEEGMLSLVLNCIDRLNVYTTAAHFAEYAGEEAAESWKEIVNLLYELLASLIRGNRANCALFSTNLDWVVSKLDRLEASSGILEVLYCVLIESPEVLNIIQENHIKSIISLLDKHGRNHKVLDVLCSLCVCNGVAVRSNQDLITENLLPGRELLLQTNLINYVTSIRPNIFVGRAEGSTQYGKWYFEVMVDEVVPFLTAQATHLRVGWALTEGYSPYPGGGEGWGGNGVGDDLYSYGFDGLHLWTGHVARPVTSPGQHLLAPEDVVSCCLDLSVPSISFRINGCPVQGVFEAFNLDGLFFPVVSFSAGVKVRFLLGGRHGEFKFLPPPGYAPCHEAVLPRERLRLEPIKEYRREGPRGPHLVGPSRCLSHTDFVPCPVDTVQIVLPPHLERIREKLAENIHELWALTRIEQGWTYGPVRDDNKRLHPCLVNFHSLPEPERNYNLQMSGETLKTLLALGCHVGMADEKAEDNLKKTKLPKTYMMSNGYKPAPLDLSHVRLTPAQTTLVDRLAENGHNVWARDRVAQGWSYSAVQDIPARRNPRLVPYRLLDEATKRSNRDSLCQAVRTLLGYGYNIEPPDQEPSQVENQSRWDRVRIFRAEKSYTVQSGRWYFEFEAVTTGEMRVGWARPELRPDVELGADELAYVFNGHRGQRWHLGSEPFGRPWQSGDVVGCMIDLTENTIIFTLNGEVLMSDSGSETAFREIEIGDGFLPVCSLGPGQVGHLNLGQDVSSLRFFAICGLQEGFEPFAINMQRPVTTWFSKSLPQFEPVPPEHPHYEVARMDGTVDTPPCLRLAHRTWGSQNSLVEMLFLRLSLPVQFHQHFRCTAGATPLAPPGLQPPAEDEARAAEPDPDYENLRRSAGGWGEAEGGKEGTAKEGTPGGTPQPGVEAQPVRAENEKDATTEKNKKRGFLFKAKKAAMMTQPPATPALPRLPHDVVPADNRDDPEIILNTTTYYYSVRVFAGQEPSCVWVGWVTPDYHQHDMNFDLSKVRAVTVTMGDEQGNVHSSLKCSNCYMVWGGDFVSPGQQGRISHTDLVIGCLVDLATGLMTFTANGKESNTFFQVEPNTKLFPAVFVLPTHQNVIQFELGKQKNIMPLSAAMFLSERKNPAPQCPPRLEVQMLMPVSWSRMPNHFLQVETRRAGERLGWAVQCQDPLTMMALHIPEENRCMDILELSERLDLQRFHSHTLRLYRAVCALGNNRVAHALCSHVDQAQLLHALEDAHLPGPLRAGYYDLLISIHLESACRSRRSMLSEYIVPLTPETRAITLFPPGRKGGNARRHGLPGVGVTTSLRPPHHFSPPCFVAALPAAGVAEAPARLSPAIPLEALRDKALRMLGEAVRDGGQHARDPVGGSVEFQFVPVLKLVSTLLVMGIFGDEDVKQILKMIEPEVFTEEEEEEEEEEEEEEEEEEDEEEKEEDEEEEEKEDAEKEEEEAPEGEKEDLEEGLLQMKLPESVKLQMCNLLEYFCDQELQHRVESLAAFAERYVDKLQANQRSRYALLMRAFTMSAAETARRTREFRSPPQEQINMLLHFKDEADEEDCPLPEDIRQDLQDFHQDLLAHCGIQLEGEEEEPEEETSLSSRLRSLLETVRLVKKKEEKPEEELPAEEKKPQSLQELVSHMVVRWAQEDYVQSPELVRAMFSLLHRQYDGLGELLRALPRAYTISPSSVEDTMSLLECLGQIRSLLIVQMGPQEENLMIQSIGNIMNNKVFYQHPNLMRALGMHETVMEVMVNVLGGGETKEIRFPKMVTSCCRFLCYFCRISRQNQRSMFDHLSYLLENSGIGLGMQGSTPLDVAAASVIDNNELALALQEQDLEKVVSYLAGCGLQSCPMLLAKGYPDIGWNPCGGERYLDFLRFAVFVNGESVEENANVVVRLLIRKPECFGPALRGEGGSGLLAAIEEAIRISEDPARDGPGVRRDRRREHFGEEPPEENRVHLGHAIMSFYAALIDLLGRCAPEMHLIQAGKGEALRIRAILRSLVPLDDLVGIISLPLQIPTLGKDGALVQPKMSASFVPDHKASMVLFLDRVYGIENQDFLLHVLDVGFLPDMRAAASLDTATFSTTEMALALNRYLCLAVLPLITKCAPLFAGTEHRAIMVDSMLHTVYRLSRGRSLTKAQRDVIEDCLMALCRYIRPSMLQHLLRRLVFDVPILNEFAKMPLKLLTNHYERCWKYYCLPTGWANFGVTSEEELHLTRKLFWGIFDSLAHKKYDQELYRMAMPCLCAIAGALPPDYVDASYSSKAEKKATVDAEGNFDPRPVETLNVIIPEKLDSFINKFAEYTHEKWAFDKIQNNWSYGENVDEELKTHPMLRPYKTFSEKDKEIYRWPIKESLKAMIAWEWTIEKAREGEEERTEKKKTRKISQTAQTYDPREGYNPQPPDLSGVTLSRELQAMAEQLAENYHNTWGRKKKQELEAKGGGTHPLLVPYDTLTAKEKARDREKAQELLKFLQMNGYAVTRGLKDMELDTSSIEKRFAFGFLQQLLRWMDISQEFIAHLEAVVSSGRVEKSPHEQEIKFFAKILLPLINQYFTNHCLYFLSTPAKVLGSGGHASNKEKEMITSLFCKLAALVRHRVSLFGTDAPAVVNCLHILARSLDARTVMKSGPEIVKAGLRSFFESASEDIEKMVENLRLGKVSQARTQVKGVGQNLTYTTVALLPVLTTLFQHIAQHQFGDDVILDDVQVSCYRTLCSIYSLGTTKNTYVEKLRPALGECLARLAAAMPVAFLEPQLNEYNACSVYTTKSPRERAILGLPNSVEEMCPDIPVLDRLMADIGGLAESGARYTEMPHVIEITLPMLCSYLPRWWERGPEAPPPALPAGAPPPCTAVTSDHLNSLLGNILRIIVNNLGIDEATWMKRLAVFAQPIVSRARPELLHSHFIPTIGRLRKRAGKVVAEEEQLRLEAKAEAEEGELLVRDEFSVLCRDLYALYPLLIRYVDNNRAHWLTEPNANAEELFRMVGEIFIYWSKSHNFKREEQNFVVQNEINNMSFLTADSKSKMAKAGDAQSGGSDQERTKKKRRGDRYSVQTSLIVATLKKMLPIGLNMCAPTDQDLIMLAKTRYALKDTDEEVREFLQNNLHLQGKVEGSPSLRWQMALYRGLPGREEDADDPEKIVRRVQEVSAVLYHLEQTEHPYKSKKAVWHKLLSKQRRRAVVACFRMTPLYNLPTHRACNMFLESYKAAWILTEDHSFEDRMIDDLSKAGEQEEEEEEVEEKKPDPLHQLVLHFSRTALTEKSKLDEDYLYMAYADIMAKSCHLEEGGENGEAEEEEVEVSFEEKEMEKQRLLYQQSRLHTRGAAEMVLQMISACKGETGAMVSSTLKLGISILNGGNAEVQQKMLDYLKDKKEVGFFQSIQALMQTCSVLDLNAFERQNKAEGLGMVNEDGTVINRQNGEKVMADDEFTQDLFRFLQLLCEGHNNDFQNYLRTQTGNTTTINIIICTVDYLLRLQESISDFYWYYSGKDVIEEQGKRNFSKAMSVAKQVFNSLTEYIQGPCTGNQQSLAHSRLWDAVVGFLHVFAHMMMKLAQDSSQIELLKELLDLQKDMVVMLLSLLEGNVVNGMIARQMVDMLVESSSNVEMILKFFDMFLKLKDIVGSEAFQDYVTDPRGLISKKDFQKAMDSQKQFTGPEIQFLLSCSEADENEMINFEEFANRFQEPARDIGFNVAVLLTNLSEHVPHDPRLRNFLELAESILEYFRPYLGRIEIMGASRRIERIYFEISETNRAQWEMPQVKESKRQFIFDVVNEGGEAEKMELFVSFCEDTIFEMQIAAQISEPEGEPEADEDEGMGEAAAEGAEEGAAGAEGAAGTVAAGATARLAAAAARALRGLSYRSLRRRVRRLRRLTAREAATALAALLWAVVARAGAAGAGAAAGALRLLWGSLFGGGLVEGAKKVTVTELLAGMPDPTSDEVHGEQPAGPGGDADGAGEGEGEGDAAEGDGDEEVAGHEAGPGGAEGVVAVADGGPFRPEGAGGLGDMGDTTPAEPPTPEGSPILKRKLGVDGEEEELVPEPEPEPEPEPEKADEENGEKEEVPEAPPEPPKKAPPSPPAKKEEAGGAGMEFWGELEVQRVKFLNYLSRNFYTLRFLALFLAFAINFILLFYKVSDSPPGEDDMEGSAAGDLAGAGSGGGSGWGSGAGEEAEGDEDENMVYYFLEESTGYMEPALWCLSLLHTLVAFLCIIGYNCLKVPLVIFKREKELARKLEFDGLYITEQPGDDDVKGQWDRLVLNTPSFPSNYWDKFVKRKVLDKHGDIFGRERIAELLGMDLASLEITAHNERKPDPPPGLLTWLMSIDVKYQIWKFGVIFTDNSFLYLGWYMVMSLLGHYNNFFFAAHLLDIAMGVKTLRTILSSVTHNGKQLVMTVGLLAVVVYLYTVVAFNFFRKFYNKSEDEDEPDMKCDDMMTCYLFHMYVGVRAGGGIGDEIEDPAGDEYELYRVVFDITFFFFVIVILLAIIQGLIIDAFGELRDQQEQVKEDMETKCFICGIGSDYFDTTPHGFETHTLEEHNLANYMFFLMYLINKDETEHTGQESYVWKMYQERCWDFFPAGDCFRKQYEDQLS

Take φ-Xibalbin3-Xt3a: the reversibility on washout entry (100 pM, 10 nM and 1 μM, early (2 to 3 min) and late (15 to 23 min) after washout) is given as “no significant washout of Xt3a effect was observed; also recorded: persistent activity after washout in our single-channel recordings for as long as the bilayers lasted”. The “sub-state activity during washout” value (maintained for as long as the bilayer lasted) is given as “sub-state activity increased during the washout period”.
